Test results taken from US20070092577A1, “Dietary calcium for reducing the production of reactive oxygen species” (University of Tennessee Research Foundation, priority 2005, published 2007).

What was measured:
[1] = test system: [Ca^2+]i in cultured 3T3-L1 adipocytes; assay: Intracellular calcium in cultured adipocytes (fura-2); format: cell-based, murine; conditions: 4 hours
Description: 3T3-L1 preadipocytes were incubated at a density of 8000 cells/cm^2 (10 cm^2 dish) and grown in Dulbecco's modified Eagle's medium (DMEM) containing 10% FBS and antibiotics (adipocyte medium) at 37° C. in 5% CO2 in air. Confluent preadipocytes were induced to differentiate with a standard differentiation medium consisting of DMEM-F 10 (1:1, vol/vol) medium supplemented with 1% FBS, 1 μM dexamethasone, IBMX (0.5 mM) and antibiotics (1% Penicillin-Streptomycin). Preadipocytes were maintained in this differentiation medium for 3 days and subsequently cultured in adipocyte medium. Cultures were re-fed every 2-3 days to allow 90% of cells to reach full differentiation before conducting chemical treatment. Chemicals were freshly diluted in adipocyte medium before treatment. Cells were washed with fresh adipocyte medium, re-fed with medium containing the different treatments, and incubated at 37° C. in 5% CO2 in air before analysis. Cell viability was measured via trypan blue exclusion. [Ca^2+]i in adipocytes was measured using a fura-2 dual-wavelength fluorescence imaging system. Cells were plated in 35-mm dishes […]). […] Cells were loaded with fura-2 acetoxymethyl ester (fura-2 AM) (10 μmol/L) in the same buffer for 2 h at 37° C. in a dark incubator with 5% CO2. To remove extracellular dye, cells were rinsed with HBSS three times and then post-incubated at room temperature for an additional 1 h for complete hydrolysis of cytoplasmic fura-2 AM. The dishes with dye-loaded cells were mounted on the stage of Nikon TMS-F fluorescence inverted microscope with a Cohu model 4915 charge-coupled device (CCD) camera. Fluorescent images were captured alternatively at excitation wavelengths of 340 and 380 nm with an emission wavelength of 520 nm. After establishment of a stable baseline, the responses to 1α, 25-(OH)2-D3 was determined. [Ca^2+]i was calculated using a ratio equation as described previously. Each analysis evaluated responses of 5 representative whole cells. Images were analyzed with […]2 version 4.62 imaging software (Intracellular Imaging, Cincinnati, Ohio). […]

[2] = test system: ROS production in cultured 3T3-L1 adipocytes; assay: ROS production in cultured adipocytes (H2-DCFDA); format: cell-based, murine; conditions: 48 hours
Description: 3T3-L1 preadipocytes were incubated at a density of 8000 cells/cm^2 (10 cm^2 dish) and grown in Dulbecco's modified Eagle's medium (DMEM) containing 10% FBS and antibiotics (adipocyte medium) at 37° C. in 5% CO2 in air. Confluent preadipocytes were induced to differentiate with a standard differentiation medium consisting of DMEM-F 10 (1:1, vol/vol) medium supplemented with 1% FBS, 1 μM dexamethasone, IBMX (0.5 mM) and antibiotics (1% Penicillin-Streptomycin). Preadipocytes were maintained in this differentiation medium for 3 days and subsequently cultured in adipocyte medium. Cultures were re-fed every 2-3 days to allow 90% of cells to reach full differentiation before conducting chemical treatment. Chemicals were freshly diluted in adipocyte medium before treatment. Cells were washed with fresh adipocyte medium, re-fed with medium containing the different treatments, and incubated at 37° C. in 5% CO2 in air before analysis. Cell viability was measured via trypan blue exclusion. […] Cells were loaded with H2-DCFDA (2 μmol/L) 30 minute before the end of the incubation period (48 h). After washing twice with PBS, cells were scraped and disrupted by sonication on ice (20s). Fluorescence (emission 543 nm or 527 nm) and DNA content were then measured as described previously. The intensity of fluorescence was expressed as arbitary units per ng DNA.

[3] = test system: TNFα; assay: TNFα expression in differentiated 3T3-L1 adipocytes; format: cell-based, mouse; conditions: 10 nmol/L, 48 h
Description: 3T3-L1 pre-adipocytes were incubated at a density of 8000 cells/cm^2 (10 cm^2 dish) and grown in Dulbecco's modified Eagle's medium (DMEM) containing 10% FBS and antibiotics (adipocyte medium) at 37° C. in 5% CO2 in air. Confluent pre-adipocytes were induced to differentiate with a standard differentiation medium consisting of DMEM-F10 (1:1, vol/vol) medium supplemented with 1% fetal bovine serum (FBS), 1 μM dexamethasone, isobutylmethylxanthine (IBMX) (0.5 mM) and antibiotics (1% Penicillin-Streptomycin). Pre-adipocytes were maintained in this differentiation medium for 3 days and subsequently cultured in adipocyte medium. Cultures were re-fed every 2-3 days to allow 90% cells to reach fully differentiation before conducting chemical treatment. […] Cell viability was measured via trypan blue exclusion. Adipocyte and muscle 18s, TNFα, IL-6, IL-8, IL-15 and adiponectin were quantitatively measured using a smart cycler real-time PCR system (Cepheid, Sunnyvale, Calif.) with a TaqMan 1000 Core Reagent Kit (Applied Biosystems, Branchburg, N.J.). […] Reactions of quantitative RT-PCR for standards and unknown samples were also performed according to the instructions of Smart Cycler System (Cepheid, Sunnyvale, Calif.) and TaqMan Real Time PCR Core Kit (Applied Biosystems, Branchburg, N.J.). The mRNA quantitation for each sample was further normalized using the corresponding 18s quantitation.

Compound: OO [H2O2, hydrogen peroxide]
- increase in [Ca^2+]i ([1]; H2O2 100 nmol/L or glucose 30 mmol/L, p<0.001): 5 fold

Compound: Cc1c(C)c2c(c(C)c1O)CC[C@@](C)(CCC[C@H](C)CCC[C@H](C)CCCC(C)C)O2 [α-tocopherol]
- effect on H2O2 induced increase in [Ca^2+]i ([1]; α-tocopherol 1 μmol/L with H2O2 100 nmol/L): reversed
- effect on glucose induced increase in [Ca^2+]i ([1]; α-tocopherol 1 μmol/L with glucose 30 mmol/L): partially blocked
- effect on ROS production in all groups ([2]; α-tocopherol 1 μmol/L): inhibited

Compound: C=C1/C(=C\C=C2/CCC[C@]3(C)[C@@H]([C@H](C)CCCC(C)(C)O)CC[C@@H]23)C[C@@H](O)C[C@@H]1O [calcitriol, 1, 25-Dihydroxyvitamin D]
- effect on high glucose induced ROS production ([2]; added to glucose 30 mmol/L, nifedipine 10 μmol/L): greater stimulation of ROS production than either glucose alone or glucose plus GDP
- stimulation of TNFα expression [3]: 135%
